Source: patent publication US5646313A, “Amino acid derivatives, processes for their preparation and their therapeutic application” (Societe Civile Bioprojet, priority 1993, dated 1997)

These molecules were tested against enkephalinase (assay: in vitro assay of the enkephalinase-inhibitory activity (J. Pharmac. Exp. Ther., 1987, 243, 666)). Settings: (E) isomer, read-out: (E) Isomer IC50.
Assay type: biochemical
Protocol: An assay of the enkephalinase-inhibitory activity (J. Pharmac. Exp. Ther., 1987, 243, 666) of the compounds of formulae (Ia) and (Ib) was performed.

Row | IC50 [nM] | Structure (SMILES)
1 | 7 | CC(CC(=O)O)NC(=O)/C(=C\c1ccccc1)CS (racemic) [Ex 12, 3-(RS)-N-(E)-[1-oxo-2-(mercaptomethyl)-3-phenylpropenyl]aminobutanoic acid]
2 | 10 | CC(CNC(=O)/C(=C\c1ccccc1)CS)C(=O)O (racemic) [Ex 14]
3 | 2.8 | O=C(O)CCNC(=O)/C(=C\c1ccccc1)CS [Ex 4, N-(E)-[1-oxo-2-(mercaptomethyl)-3-phenylpropenyl]-β-alanine]
4 | 6.4 | O=C(O)CCCNC(=O)/C(=C\c1ccccc1)CS [Ex 16, 4-N-(E)-[1-oxo-2-(mercaptomethyl)-3-phenylpropenyl]aminobutanoic acid]
5 | 2.7 | COc1ccc(/C=C(/CS)C(=O)NCCC(=O)O)cc1 [Ex 19, N-(E)-[1-oxo-2-(mercaptomethyl)-3-(4-methoxyphenyl)propenyl]-β-alanin]
6 | 12.1 | O=C(O)CCNC(=O)/C(=C\c1ccc(C(F)(F)F)cc1)CS [Ex 22, N-(E)-[1-oxo-2-(mercaptomethyl)-3-(4-trifluoromethylphenyl)propenyl]-β-alanine]
7 | 7.5 | O=C(O)CCNC(=O)/C(=C\c1ccc(-c2ccccc2)cc1)CS [Ex 25, N-(E)-[1-oxo-2-(mercaptomethyl)-3-(4-phenylphenyl)propenyl]-β-alanine]
8 | 11.8 | CCOc1ccc(/C=C(/CS)C(=O)NCCC(=O)O)cc1 [Ex 28, N-(E)-[1-oxo-2-(mercaptomethyl)-3-(4-ethoxyphenyl)propenyl]-β-alanine]
9 | 5.9 | O=C(O)CCNC(=O)/C(=C\c1cc(F)cc(F)c1)CS [Ex 33, N-(E)-[1-oxo-2-(mercaptomethyl)-3-(3,5-difluorophenyl)propenyl]-β-alanine]
10 | 5.8 | O=C(O)CCNC(=O)/C(=C\c1ccc(Oc2ccccc2)cc1)CS [Ex 41, N-(E)-[1-oxo-2-(mercaptomethyl)-3-(4-phenoxyphenyl)propenyl]-β-alanine]
11 | 19 | CC(=O)SC/C(=C/c1ccc2c(c1)OCO2)C(=O)NCCC(=O)OCc1ccccc1 [Ex 43, benzyl N-(E)-[1-oxo-2-(acetylthiomethyl)-3-(3,4-methylenedioxyphenyl)propenyl]-β-alaninate]

Same assay, conditions: (Z) isomer, read-out: (Z) Isomer IC50

Row | IC50 [nM] | Structure (SMILES)
12 | 171 | O=C(O)CCNC(=O)/C(=C/c1ccccc1)CS [Ex 38, N-(Z)-[1-oxo-2-(mercaptomethyl)-3-phenylpropenyl]-β-alanine]
